The record followed here is ChEMBL document CHEMBL1150451, “Synthetic studies on the furan ring of wortmannin” (Bioorg Med Chem Lett, 1995).

The nature of this assay: Inhibition of Phosphatidylinositol 3-kinase.
`C/N=C/C1=C(O)O[C@H](COC)[C@@]2(C)C1=C(O)C(=O)C1=C2[C@H](OC(C)=O)C[C@]2(C)C(=O)CC[C@@H]12` yielded an IC50 greater than 0.5 µM. Then `COC[C@H]1OC(O)=C(C=N)C2=C(O)C(=O)C3=C([C@H](OC(C)=O)C[C@]4(C)C(=O)CC[C@@H]34)[C@]21C`, with greater than 0.5 µM. Then `COC[C@H]1OC(=O)C(=C(C)C)C2=C(O)C(=O)C3=C([C@H](OC(C)=O)C[C@]4(C)C(=O)CC[C@@H]34)[C@]21C`, with greater than 0.5 µM; and `CC/N=C/C1=C(O)O[C@H](COC)[C@@]2(C)C1=C(O)C(=O)C1=C2[C@H](OC(C)=O)C[C@]2(C)C(=O)CC[C@@H]12`, with greater than 0.5 µM; and `CCC/N=C\C1=C(O)O[C@H](COC)[C@@]2(C)C1=C(O)C(=O)C1=C2[C@H](OC(C)=O)C[C@]2(C)C(=O)CC[C@@H]12`, with greater than 0.5 µM.

`COC[C@H]1OC(=O)C2=CCOC3=C2[C@@]1(C)C1=C(C3=O)[C@@H]2CCC(=O)[C@@]2(C)C[C@H]1OC(C)=O` yielded an IC50 of 0.271 µM. In turn, `CCN(/C=C1/C(=O)O[C@H](COC)[C@@]2(C)C1=C(O)C(=O)C1=C2[C@H](OC(C)=O)C[C@]2(C)C(=O)CC[C@@H]12)CC` displayed an IC50 of 0.08 µM.

In turn, `COC[C@H]1OC(=O)C23CC2COC2=C3[C@@]1(C)C1=C(C2=O)[C@@H]2CCC(=O)[C@@]2(C)C[C@H]1OC(C)=O` (some centres undefined) had an IC50 greater than 0.5 µM. In the case of `COC[C@H]1OC(=O)c2coc3c2[C@@]1(C)C1=C(C3=O)[C@@H]2CCC(=O)[C@@]2(C)C[C@H]1OC(C)=O` [WORTMANNIN], half-maximal inhibition (IC50) was put at 0.0042 µM.

As usually defined, the IC50 is the concentration at which inhibition is half-maximal.
